In patent US12528814B2, “Bifunctional degraders of interleukin-1 receptor-associated kinases and therapeutic use thereof” (NURIX THERAPEUTICS, INC., priority 2020, dated 2026) one finds Dmax, DC50 and IC50 data, which are given here for ten molecules.

Assay [1] addresses T1, IRAK4 (Homo sapiens (Human), UniProt Q9NWZ3). Kind of assay: IRAK4 Degradation HiBiT Assay. To be noted: HiBiT-tagged Jurkat cells, 4 hrs; for Dmax: Jurkat; for DC50: read-out: Cellular IRAK4 HiBiT: DC50.
Target sequence in this assay (Q9NWZ3 whole entry): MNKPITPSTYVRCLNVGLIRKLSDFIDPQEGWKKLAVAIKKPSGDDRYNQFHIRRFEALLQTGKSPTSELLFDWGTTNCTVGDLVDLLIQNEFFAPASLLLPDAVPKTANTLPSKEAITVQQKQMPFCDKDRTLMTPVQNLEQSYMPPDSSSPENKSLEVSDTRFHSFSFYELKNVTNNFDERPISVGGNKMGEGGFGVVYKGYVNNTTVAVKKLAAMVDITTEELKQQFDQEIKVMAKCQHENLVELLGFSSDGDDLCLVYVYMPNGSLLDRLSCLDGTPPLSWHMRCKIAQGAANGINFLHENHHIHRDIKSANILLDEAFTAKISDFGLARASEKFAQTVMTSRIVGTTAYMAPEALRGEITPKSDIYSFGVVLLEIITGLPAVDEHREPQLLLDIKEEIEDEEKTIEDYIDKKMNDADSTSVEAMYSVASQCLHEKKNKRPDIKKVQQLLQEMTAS
In assay [2] the target is T1, IRAK4. Kind of assay: IRAK4 Biochemical HTRF Kinase Assay. To be noted: read-out: IRAK4 HTRF biochemical: IC50. The essentials:
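IC50 values derive from non-linear regression of sixteen concentrations in duplicate. Kinase reaction ran 90 min at ambient temperature after adding 5 μM STK-S1 substrate, 10 mM ATP and 10 mM MgCl2 (reaction-solution levels, pre-dilution to 10 μl); phospho-peptide detected by HTRF after 60 min.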
Target sequence in this assay (Q9NWZ3 whole entry, species assumed): as the sequence (Q9NWZ3 whole entry) above
In general terms: Time-resolved FRET reads energy transfer from a long-lived donor to a nearby acceptor.

The mark [3] stands for this setting: read-out: Cellular IRAK4 HiBiT: Dmax, Table 4.
Setting [4] is: read-out: Cellular IRAK4 HiBiT: Dmax, Table 5, multiple runs.

As usually defined, the Dmax is the greatest extent of degradation seen. One may read the DC50 as the concentration at which degradation of the target reaches its halfway point. The IC50 is the point on the concentration scale where inhibition reaches its midpoint.

Like-named read-outs stand apart in the source and are kept apart here.

For `CC(C)Nc1cc(-c2ccc3cc(C#N)cnn23)ncc1-c1nnc(N2CCN(C(=O)C3CCN(CC4CCN(c5ccc6c(=O)n(C7CCC(=O)NC7=O)ccc6c5)CC4)CC3)CC2)s1` (stereo not drawn) [Example 21, 7-(5-(5-(4-(1-((1-(2-(2,6-dioxopiperidin-3-yl)-1-oxo-1,2-dihydroisoquinolin-6-yl)piperidin-4-yl)methyl)piperidine-4-carbonyl)piperazin-1-yl)-1,3,4-thiadiazol-2-yl)-4-(isopropylamino)pyridin-2-yl)pyrrolo[1,2-b]pyridazine-3-carbonitrile], the Dmax on IRAK4 [1] (setting [3]) stood at 103%; at IRAK4 [1] (setting [4]) it was 101%. For the same molecule, the DC50 was found to be 251 nM on IRAK4 [1] (Table 4) and 251 nM at IRAK4 [1] (Table 5, multiple runs). The IC50 at IRAK4 [2] (Table 4) is 0.5 nM; on IRAK4 [2] (Table 5, multiple runs), 0.5 nM.
For `CNc1cc(-c2ccc3cc(C#N)cnn23)ncc1-c1nnc(N2CC3CCC(C2)N3C2CCN(C(=O)c3ccc4c(c3)C(=O)N(C3CCC(=O)NC3=O)C4)CC2)s1` (stereo not drawn) [Example 162, 7-(5-(5-(8-(1-(2-(2,6-dioxopiperidin-3-yl)-3-oxoisoindoline-5-carbonyl)piperidin-4-yl)-3,8-diazabicyclo[3.2.1]octan-3-yl)-1,3,4-thiadiazol-2-yl)-4-(methylamino)pyridin-2-yl)pyrrolo[1,2-b]pyridazine-3-carbonitrile], on IRAK4 [1] (setting [4]), the Dmax came out at 110%. Moreover, the half-maximal degradation concentration (DC50) on IRAK4 [1] (Table 5, multiple runs) came out at 10.5 nM. In addition, on IRAK4 [2] (Table 5, multiple runs), the IC50 is 0.4 nM.
Consider `CNc1cc(-c2ccc3cc(C#N)cnn23)ncc1-c1nnc([C@H]2CC[C@H](NC(=O)CCOCCOCCOCCNc3cccc4c3C(=O)N(C3CCC(=O)NC3=O)C4=O)CC2)s1` (stereo partly drawn) [Example 70, N-((1r,4r)-4-(5-(6-(3-cyanopyrrolo[1,2-b]pyridazin-7-yl)-4-(methylamino)pyridin-3-yl)-1,3,4-thiadiazol-2-yl)cyclohexyl)-3-(2-(2-(2-((2-(2,6-dioxopiperidin-3-yl)-1,3-dioxoisoindolin-4-yl)amino)ethoxy)ethoxy)ethoxy)propenamide], for which the Dmax amounted to 68% at IRAK4 [1] (setting [3]) and 100% on IRAK4 [1] (setting [4]). In addition, the DC50 on IRAK4 [1] (Table 4) came to 6.3 nM; on IRAK4 [1] (Table 5, multiple runs), 10.8 nM. Also, the IC50 on IRAK4 [2] (Table 4) stood at 0.86 nM; on IRAK4 [2] (Table 5, multiple runs), 0.8 nM.
In the case of `CNc1cc(-c2ccc3cc(C#N)cnn23)ncc1-c1nnc(N2CCC(C3CCN(C(=O)c4ccc5c(c4)C(=O)N(C4CCC(=O)NC4=O)C5=O)CC3)CC2)s1` (stereo not drawn) [Example 184, 7-(5-(5-(1′-(2-(2,6-dioxopiperidin-3-yl)-1,3-dioxoisoindoline-5-carbonyl)-[4,4′-bipiperidin]-1-yl)-1,3,4-thiadiazol-2-yl)-4-(methylamino)pyridin-2-yl)pyrrolo[1,2-b]pyridazine-3-carbonitrile], the Dmax at IRAK4 [1] (setting [4]) was 96%. In addition, on IRAK4 [1] (Table 5, multiple runs), the DC50 amounted to 71.4 nM. Besides, at IRAK4 [2] (Table 5, multiple runs), the IC50 came out at 0.9 nM.
In the case of `CC(C)Nc1cc(-c2ccc3cc(C#N)cnn23)ncc1-c1nnc(N2CCN(CCC3CCN(c4ccc5c(c4)C(=O)N(C4CCC(=O)NC4=O)C5=O)CC3)CC2)s1` (stereo not drawn) [Example 16, 7-(5-(5-(4-(2-(1-(2-(2,6-dioxopiperidin-3-yl)-1,3-dioxoisoindolin-5-yl)piperidin-4-yl)ethyl)piperazin-1-yl)-1,3,4-thiadiazol-2-yl)-4-(isopropylamino)pyridin-2-yl)pyrrolo[1,2-b]pyridazine-3-carbonitrile], the Dmax at IRAK4 [1] (setting [3]) amounted to 62%; at IRAK4 [1] (setting [4]) it was 53%. Besides, the DC50 on IRAK4 [1] (Table 4) turned out to be 127 nM; on IRAK4 [1] (Table 5, multiple runs) it was 190 nM. The IC50 at IRAK4 [2] (Table 4) amounted to 1.7 nM; on IRAK4 [2] (Table 5, multiple runs) it was 1.7 nM.
As to `CNc1cc(-c2ccc3cc(C#N)cnn23)ncc1-c1nnc(C23CCC(NC(=O)CCOCCNc4ccc5c(c4)C(=O)N(C4CCC(=O)NC4=O)C5=O)(CC2)CC3)s1` (stereo not drawn) [Example 102, N-(4-(5-(6-(3-cyanopyrrolo[1,2-b]pyridazin-7-yl)-4-(methylamino)pyridin-3-yl)-1,3,4-thiadiazol-2-yl)bicyclo[2.2.2]octan-1-yl)-3-(2-((2-(2,6-dioxopiperidin-3-yl)-1,3-dioxoisoindolin-5-yl)amino)ethoxy)propanamide], on IRAK4 [1] (setting [4]), the Dmax came out at 91%. For the same molecule, the DC50 at IRAK4 [1] (Table 5, multiple runs) came out at 25.3 nM. Also, the IC50 at IRAK4 [2] (Table 5, multiple runs) was determined as 0.8 nM.
`CNc1cc(-c2ccc3cc(C#N)cnn23)ncc1-c1nnc([C@H]2CC[C@H](NC(=O)CCCCCCCNc3ccc4c(c3)C(=O)N(C3CCC(=O)NC3=O)C4=O)CC2)s1` (stereo partly drawn) [Example 67, N-((1r,4r)-4-(5-(6-(3-cyanopyrrolo[1,2-b]pyridazin-7-yl)-4-(methylamino)pyridin-3-yl)-1,3,4-thiadiazol-2-yl)cyclohexyl)-8-((2-(2,6-dioxopiperidin-3-yl)-1,3-dioxoisoindolin-5-yl)amino)octanamide]: the figures for the Dmax on IRAK4 [1] (setting [3]) and on IRAK4 [1] (setting [4]) were 53% and 86%, respectively. Moreover, the DC50 on IRAK4 [1] (Table 4) came out at 10.4 nM; on IRAK4 [1] (Table 5, multiple runs), 45.7 nM. Also, the IC50 was found to be 1.61 nM at IRAK4 [2] (Table 4) and 1.8 nM at IRAK4 [2] (Table 5, multiple runs).
In the case of `CC(C)Nc1cc(-c2ccc3cc(C#N)cnn23)ncc1-c1nnc(N2CCC(NC(=O)C3CCN(Cc4ccc5c(c4)C(=O)N(C4CCC(=O)NC4=O)C5=O)CC3)CC2)s1` (stereo not drawn) [Example 30, N-(1-(5-(6-(3-cyanopyrrolo[1,2-b]pyridazin-7-yl)-4-(isopropylamino)pyridin-3-yl)-1,3,4-thiadiazol-2-yl)piperidin-4-yl)-1-((2-(2,6-dioxopiperidin-3-yl)-1,3-dioxoisoindolin-5-yl)methyl)piperidine-4-carboxamide], the Dmax at IRAK4 [1] (setting [3]) and at IRAK4 [1] (setting [4]) was 95% throughout. The DC50 on IRAK4 [1] (Table 4) was 73.4 nM; on IRAK4 [1] (Table 5, multiple runs), 73.5 nM. Moreover, the IC50 at IRAK4 [2] (Table 4) stood at 0.9 nM; at IRAK4 [2] (Table 5, multiple runs), 1.1 nM.
With `Cc1ncsc1-c1ccc([C@H](C)NC(=O)[C@@H]2C[C@@H](O)CN2C(=O)[C@@H](NC(=O)CCOCCOCCOCCOCCOCCC(=O)N2CCN(c3nnc(-c4cnc(-c5ccc6cc(C#N)cnn56)cc4NC(C)C)s3)CC2)C(C)(C)C)cc1` [Example 41, (2S,4R)-1-((S)-2-(tert-butyl)-22-(4-(5-(6-(3-cyanopyrrolo[1,2-b]pyridazin-7-yl)-4-(isopropylamino)pyridin-3-yl)-1,3,4-thiadiazol-2-yl)piperazin-1-yl)-4,22-dioxo-7,10,13,16,19-pentaoxa-3-azadocosanoyl)-4-hydroxy-N—((S)-1-(4-(4-methylthiazol-5-yl)phenyl)ethyl)pyrrolidine-2-carboxamide], the Dmax was determined as 44% at IRAK4 [1] (setting [3]) and 47% at IRAK4 [1] (setting [4]). The DC50 on IRAK4 [1] (Table 4) was 872 nM; at IRAK4 [1] (Table 5, multiple runs), 1330 nM. Moreover, the IC50 at IRAK4 [2] (Table 4) amounted to 1.3 nM; on IRAK4 [2] (Table 5, multiple runs) it was 1.3 nM.
Turning to `CNc1cc(-c2ccc3cc(C#N)cnn23)ncc1-c1nnc([C@H]2CC[C@H](NC(=O)CCOCCOc3cc(-c4scnc4C)ccc3CNC(=O)[C@@H]3C[C@@H](O)CN3C(=O)[C@@H](NC(=O)C3(F)CC3)C(C)(C)C)CC2)s1` [Example 58, (2S,4R)—N-(2-(2-(3-(((1r,4r)-4-(5-(6-(3-cyanopyrrolo[1,2-b]pyridazin-7-yl)-4-(methylamino)pyridin-3-yl)-1,3,4-thiadiazol-2-yl)cyclohexyl)amino)-3-oxopropoxy)ethoxy)-4-(4-methylthiazol-5-yl)benzyl)-1-((S)-2-(1-fluorocyclopropane-1-carboxamido)-3,3-dimethylbutanoyl)-4-hydroxypyrrolidine-2-carboxamide], the Dmax on IRAK4 [1] (setting [3]) was 115%; at IRAK4 [1] (setting [4]), 118%. Further, the DC50 at IRAK4 [1] (Table 4) stood at 72.8 nM; on IRAK4 [1] (Table 5, multiple runs), 73.7 nM. The IC50 came out at 5.26 nM at IRAK4 [2] (Table 4) and 5.3 nM on IRAK4 [2] (Table 5, multiple runs).
